In article PMC2788200 (Nutrition Research and Practice, 2008):

Target: T1, 10-formyltetrahydrofolate dehydrogenase (FDH) (Rattus norvegicus, UniProt P28037)
T1 sequence (P28037 1-902): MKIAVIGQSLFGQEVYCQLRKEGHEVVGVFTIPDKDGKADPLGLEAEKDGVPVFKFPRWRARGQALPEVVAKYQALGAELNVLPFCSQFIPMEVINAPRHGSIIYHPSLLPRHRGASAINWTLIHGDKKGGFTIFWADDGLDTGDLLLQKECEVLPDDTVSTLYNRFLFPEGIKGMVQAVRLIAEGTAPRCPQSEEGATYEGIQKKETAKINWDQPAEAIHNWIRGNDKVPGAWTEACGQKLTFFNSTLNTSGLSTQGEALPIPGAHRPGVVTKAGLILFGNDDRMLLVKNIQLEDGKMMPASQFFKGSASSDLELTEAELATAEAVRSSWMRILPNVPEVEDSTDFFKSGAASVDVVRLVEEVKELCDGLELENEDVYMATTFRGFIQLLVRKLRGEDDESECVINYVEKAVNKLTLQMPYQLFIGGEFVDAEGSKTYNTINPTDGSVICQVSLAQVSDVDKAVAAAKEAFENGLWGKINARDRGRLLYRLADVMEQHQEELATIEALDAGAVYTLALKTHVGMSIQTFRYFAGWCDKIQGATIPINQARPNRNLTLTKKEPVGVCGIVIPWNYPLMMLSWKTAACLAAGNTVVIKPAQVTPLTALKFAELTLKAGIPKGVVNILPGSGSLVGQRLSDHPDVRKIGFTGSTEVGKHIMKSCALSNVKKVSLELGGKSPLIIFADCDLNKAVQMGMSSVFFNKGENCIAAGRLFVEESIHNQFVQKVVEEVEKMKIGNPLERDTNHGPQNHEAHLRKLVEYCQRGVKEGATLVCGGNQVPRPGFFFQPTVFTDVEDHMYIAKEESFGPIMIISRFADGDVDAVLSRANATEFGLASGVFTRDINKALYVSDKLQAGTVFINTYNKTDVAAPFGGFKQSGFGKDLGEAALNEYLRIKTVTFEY
Test: THF formation at […] nm with NADP+, hydrolytic rate subtracted
Type: biochemical

SMILES: CC=O [acetaldehyde]
- IC50: 4 mM
